{"source": "ChEMBL document CHEMBL4364281", "about": "“Design of wogonin-inspired selective cyclin-dependent kinase 9 (CDK9) inhibitors with potent in vitro and in vivo antitumor activity” (Eur J Med Chem, 2019)", "key": {"CCRF-CEM": {"test_system": "CCRF-CEM", "assay": "Antiproliferative activity against human CEM cells assessed as reduction in cell viability after 72 hrs by MTT assay", "type": "functional, cell-based"}, "HeLa": {"test_system": "HeLa", "assay": "Antiproliferative activity against human HeLa cells assessed as reduction in cell viability after 72 hrs by MTT assay", "type": "functional, cell-based"}, "MV4-11 [1]": {"test_system": "MV4-11", "assay": "Cell cycle arrest in human MV4-11 cells assessed as accumulation at G1 phase at 0.25 uM after 24 hrs after 24 hrs by propidium iodide staining based flow cytometry (reference value: 41.20%)", "type": "functional"}, "MV4-11 [2]": {"test_system": "MV4-11", "assay": "Induction of apoptosis in human MV4-11 cells assessed as viable cells at 0.05 uM after 24 hrs by Annexin-V/propidium iodide staining based flow cytometric method (reference value: 96.94%)", "type": "functional", "details": "MV4-11, 24 h, read-out: Activity"}, "MV4-11 [3]": {"test_system": "MV4-11", "assay": "Induction of apoptosis in human MV4-11 cells assessed as early apoptotic cells at 0.05 uM after 24 hrs by Annexin-V/propidium iodide staining based flow cytometric method (reference value: 0.36%)", "type": "functional"}, "MV4-11 [4]": {"test_system": "MV4-11", "assay": "Induction of apoptosis in human MV4-11 cells assessed as viable cells at 0.25 uM after 24 hrs by Annexin-V/propidium iodide staining based flow cytometric method (reference value: 96.94%)", "type": "functional", "details": "MV4-11, 24 h, read-out: Activity"}, "MV4-11 [5]": {"test_system": "MV4-11", "assay": "Induction of apoptosis in human MV4-11 cells assessed as late apoptotic cells at 0.25 uM after 24 hrs by Annexin-V/propidium iodide staining based flow cytometric method (reference value: 0.07%)", "type": "functional"}, "MV4-11 [6]": {"test_system": "MV4-11", "assay": "Induction of apoptosis in human MV4-11 cells assessed as early apoptotic cells at 1.25 uM after 24 hrs by Annexin-V/propidium iodide staining based flow cytometric method (reference value: 0.36%)", "type": "functional"}, "MV4-11 [7]": {"test_system": "MV4-11", "assay": "Induction of apoptosis in human MV4-11 cells assessed as effect on BCL-2 expression after 4 hrs by Western blot analysis", "type": "functional, cell-based"}, "MV4-11 [8]": {"test_system": "MV4-11", "assay": "Induction of apoptosis in human MV4-11 cells assessed as increase in cleaved PARP level after 24 hrs by Western blot analysis", "type": "functional, cell-based"}, "MV4-11 [9]": {"test_system": "MV4-11", "assay": "Antitumor activity against human MV4-11 cells xenografted in BALB/c mouse assessed as tumour growth inhibition at 15 mg/kg, iv administered every other day for 21 days relative to control", "type": "functional", "details": "MV4-11, iv, 504 h, read-out: TGI"}, "[10]": {"assay": "Toxicity in BALB/c mouse assessed as effect on body weight at 15 to 45 mg/kg, iv administered every other day for 21 days", "type": "organism-based", "details": "in vivo, 504 h"}, "CDK2/Cyclin A2": {"target": "CDK2/Cyclin A2 (Homo sapiens, UniProt P24941)", "description": "Inhibition of human CDK2/cyclin-A2 using H1 histone as substrate after 2 hrs by [gamma-33P]-ATP assay"}, "A549": {"test_system": "A549", "assay": "cells", "details": "Homo sapiens, A549, 72 h", "description": "Antiproliferative activity against human A549 cells assessed as reduction in cell viability after 72 hrs by MTT assay"}}, "note": "Active and inactive are the calls of the source. The rule behind the calls is not given here."}
{"smiles": "COc1cc(O)c2c(=O)cc(-c3ccc(N4CCN(C)CC4)cc3)oc2c1Oc1c(C)n[nH]c1C", "values": [{"measurement": "IC50", "setting": "CCRF-CEM", "value": 1.24, "unit": "µM"}, {"measurement": "IC50", "setting": "HeLa", "value": 2.32, "unit": "µM"}, {"measurement": "Activity", "setting": "MV4-11 [1]", "value": 55.77, "unit": "%"}, {"measurement": "viability at 0.05 µM", "setting": "MV4-11 [2]", "value": 74.8, "unit": "%"}, {"measurement": "Activity", "setting": "MV4-11 [3]", "value": 12.42, "unit": "%"}, {"measurement": "viability at 0.25 µM", "setting": "MV4-11 [4]", "value": 63.7, "unit": "%"}, {"measurement": "Activity", "setting": "MV4-11 [5]", "value": 7.29, "unit": "%"}, {"measurement": "Activity", "setting": "MV4-11 [6]", "value": 26.43, "unit": "%"}, {"measurement": "Activity", "setting": "MV4-11 [7]", "value": "inactive"}, {"measurement": "Activity", "setting": "MV4-11 [8]", "value": "Dose-dependent effect"}, {"measurement": "inhibition in vivo at 15 mg/kg", "setting": "MV4-11 [9]", "value": 22.9, "unit": "%"}, {"measurement": "Activity", "setting": "[10]", "value": "Non-Toxic"}, {"measurement": "IC50", "setting": "CDK2/Cyclin A2", "value": 0.913, "unit": "µM"}, {"measurement": "IC50", "setting": "A549", "value": 1.81, "unit": "µM"}]}
